Where two headings read alike, the source gives them in different places.
Tests used:
[1] = system: thylakoid membrane, electron transfer reaction of two photosystems, especially photosystem II; format: biochemical
[2] = system: Striga hermonthica; conditions: 10-4 mol/L; cited from earlier work
[3] = system: main weeds in the cropland; format: in vivo
[4] = system: weeds; conditions: in vivo; cited from earlier work

CCC(C)C1NC(=O)C(C(C)=O)=C1O (stereo not shown) [tenuazonic acid]
apparent quanta efficiency [1]: obviously reduce
electron transfer reaction of two photosystems, especially photosystem II [1]: inhibiting
photosynthetic oxygen evolution rate [1]: obviously reduce
inhibitory effect on the seed germination [2]: around 50%
time to distinct toxic symptom ([3]; in vivo): five
time to obvious injuried symptom ([3]; in vivo): 12 h

CC(=O)C1=C(O)C(CC(C)C)NC1=O (stereo not shown) [iso-tenuazonic acid]
apparent quanta efficiency [1]: obviously reduce
electron transfer reaction of two photosystems, especially photosystem II [1]: inhibiting
photosynthetic oxygen evolution rate [1]: obviously reduce
inhibitory effect on the seed germination [2]: around 50%
time to distinct toxic symptom ([3]; sprayed on the stems and leaves, 5 to 800 μg/g): five
time to obvious injuried symptom ([3]; stem or leaf treatment): 12 h

O=C(O)CNCP(=O)(O)O [glyphosate]
time to kill the weeds [4]: at least 10 days
